Measurements from US9127040B2, “Regulation of sodium channels by PLUNC proteins” (The University of North Carolina at Chapel Hill, priority 2011, dated 2015).

Tests used:
ENaC [1] = target: T1, ENaC (Homo sapiens, UniProt P37088+P51168+P51170); assay: Transepithelial electrical resistance in human bronchial epithelial cultures; format: cell-based; settings: 50 ng/ml SPLUNC1 30 min or amiloride 10 min; effects not additive
T1 construct: measured the transepithelial voltage under thin film conditions in human bronchial epithelial cultures; endogenous in cells; host or cells: primary human bronchial epithelial cultures (normal or CF donors)
T1 sequence (P37088 1-669): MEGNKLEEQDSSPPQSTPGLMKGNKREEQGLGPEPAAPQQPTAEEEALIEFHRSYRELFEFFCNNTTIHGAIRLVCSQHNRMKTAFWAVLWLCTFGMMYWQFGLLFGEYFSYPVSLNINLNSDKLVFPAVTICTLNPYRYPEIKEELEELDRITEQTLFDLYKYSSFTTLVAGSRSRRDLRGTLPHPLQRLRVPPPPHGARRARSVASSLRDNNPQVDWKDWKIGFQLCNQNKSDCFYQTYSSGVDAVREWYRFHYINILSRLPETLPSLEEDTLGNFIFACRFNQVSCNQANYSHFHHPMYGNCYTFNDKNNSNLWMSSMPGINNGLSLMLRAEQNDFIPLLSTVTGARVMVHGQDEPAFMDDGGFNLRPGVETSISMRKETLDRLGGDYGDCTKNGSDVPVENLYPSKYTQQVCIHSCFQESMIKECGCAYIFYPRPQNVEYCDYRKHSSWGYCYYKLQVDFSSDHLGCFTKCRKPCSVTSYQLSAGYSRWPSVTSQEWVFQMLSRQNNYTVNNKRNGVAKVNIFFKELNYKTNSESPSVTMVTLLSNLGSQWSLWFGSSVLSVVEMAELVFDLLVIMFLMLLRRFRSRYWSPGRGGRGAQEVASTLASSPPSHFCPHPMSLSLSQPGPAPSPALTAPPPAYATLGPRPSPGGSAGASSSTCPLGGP
T1 sequence (P51168 1-640): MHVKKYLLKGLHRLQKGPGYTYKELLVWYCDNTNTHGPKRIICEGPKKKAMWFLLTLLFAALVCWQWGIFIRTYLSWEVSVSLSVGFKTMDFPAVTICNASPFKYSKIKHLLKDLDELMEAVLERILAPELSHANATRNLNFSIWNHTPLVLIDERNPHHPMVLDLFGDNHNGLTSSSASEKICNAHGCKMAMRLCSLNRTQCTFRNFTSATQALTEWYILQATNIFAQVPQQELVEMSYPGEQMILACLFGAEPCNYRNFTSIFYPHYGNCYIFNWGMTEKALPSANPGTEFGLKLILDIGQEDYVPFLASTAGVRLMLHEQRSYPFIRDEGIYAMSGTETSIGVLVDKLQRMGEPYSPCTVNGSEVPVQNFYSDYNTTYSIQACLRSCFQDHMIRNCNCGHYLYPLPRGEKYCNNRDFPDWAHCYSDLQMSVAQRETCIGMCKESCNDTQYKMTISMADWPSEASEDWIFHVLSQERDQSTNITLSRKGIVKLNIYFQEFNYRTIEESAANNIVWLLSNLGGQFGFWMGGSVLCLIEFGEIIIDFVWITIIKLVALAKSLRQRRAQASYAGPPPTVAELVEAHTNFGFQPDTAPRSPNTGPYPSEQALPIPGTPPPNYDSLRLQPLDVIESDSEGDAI
T1 sequence (P51170 1-649): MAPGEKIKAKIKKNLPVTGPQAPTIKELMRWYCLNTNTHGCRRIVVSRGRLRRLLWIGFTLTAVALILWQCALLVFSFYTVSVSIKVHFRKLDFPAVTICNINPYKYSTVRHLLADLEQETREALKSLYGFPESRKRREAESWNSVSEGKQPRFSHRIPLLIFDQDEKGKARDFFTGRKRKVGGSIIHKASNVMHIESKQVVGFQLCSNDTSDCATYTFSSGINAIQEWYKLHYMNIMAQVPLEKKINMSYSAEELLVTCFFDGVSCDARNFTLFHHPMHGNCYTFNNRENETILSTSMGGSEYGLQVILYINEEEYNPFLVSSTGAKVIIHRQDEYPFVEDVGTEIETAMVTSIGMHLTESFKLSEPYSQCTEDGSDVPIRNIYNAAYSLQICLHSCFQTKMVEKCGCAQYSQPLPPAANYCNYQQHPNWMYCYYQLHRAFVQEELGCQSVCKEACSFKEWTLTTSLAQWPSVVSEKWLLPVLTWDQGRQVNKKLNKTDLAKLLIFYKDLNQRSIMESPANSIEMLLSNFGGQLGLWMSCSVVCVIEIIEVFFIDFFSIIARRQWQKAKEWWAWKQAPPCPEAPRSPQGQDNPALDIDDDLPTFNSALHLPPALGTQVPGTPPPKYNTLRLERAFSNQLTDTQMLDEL
Excerpt: A single-barreled potential difference-sensing electrode was placed in the airway surface liquid by micromanipulator and used in conjunction with a macroelectrode in the serosal solution to measure transepithelial voltage using a voltmeter (World Precision Instruments). […] Transepithelial resistance was routinely measured using the EVOM system (WPI) as previously described ([…] et al., J. Gen. Physiol. 127:591 (2006)).

ENaC [2] = target: T1, ENaC; assay: Transepithelial voltage (PD), thin film conditions, human bronchial epithelial cultures; format: cell-based; design: reduction of transepithelial voltage: dose or concentration left out as unconfirmed
Excerpt: Tissue procurement and cell culture: Cells were harvested by enzymatic digestion from human bronchial tissue as previously described under a protocol approved by the UNC School of Medicine IRB (Tarran et al., J. Gen. Physiol. 127:591 (2006)). Human excess donor lungs and excised recipient lungs were obtained at the time of lung transplantation from portions of main stem or […] bronchi and cells were harvested by enzymatic digestion. All preparations were maintained at an air-liquid interface in a modified bronchial epithelial medium and used 2-5 weeks after seeding on 12 mm T-Clear inserts (Corning Costar) coated with human placental type VI collagen (Sigma). Phosphate buffered saline (PBS) was used for washing human bronchial epithelial culture mucosal surfaces. HBECs were maintained at an air-liquid interface in a modified bronchial epithelial growth medium (BEGM) with 5% CO2 at 37° C. and used 2-5 weeks after seeding on 12-mm T-clear inserts (Corning-Costar, Corning, N.Y., USA) (Randell, Methods Mol. Biol. 742:285 (2011)).
A single-barreled potential difference-sensing electrode was placed in the airway surface liquid by micromanipulator and used in conjunction with a macroelectrode in the serosal solution to measure transepithelial voltage using a voltmeter (World Precision Instruments). […] Transepithelial resistance was routinely measured using the EVOM system (WPI) as previously described (Tarran et al., J. Gen. Physiol. 127:591 (2006)).

ENaC [3] = target: T1, ENaC; assay: ASL height 6 h after exposure, alanine scan of S18; format: cell-based
Experimental: To label the ASL, PBS containing 10 kDa Rhodamine dextran (0.2-2 mg/mL; Invitrogen, Carlsbad, Calif., USA) was added to HBEC mucosal surfaces as previously described (Tarran et al., Mol. Cell 8:149 (2001)). When added, peptides with or without 100 nM neutrophil elastase, 1 U/mL aprotinin, activated neutrophil supernatant (ANS) (Haynes et al., Am. J. Physiol. Heart Circ. Physiol. 294:H379 (2008)) or 10 μM sivelestat (Sigma-Aldrich, St Louis, Mo., USA) were added to the mucosal surface along with the Rhodamine dextran. Bumetanide (100 μM) was added to the serosal solution.
ASL height was measured 6 h after exposure to vehicle, control peptide, S18 or S18 with specific residues mutated to alanine as outlined in FIG. 31. […] NB, G1, G2 and A18 were not mutated. […] All n=6.

βENaC = target: T2, βENaC (Homo sapiens, UniProt P51168); assay: Biotinylated peptide pull-down of ENaC subunits from HEK293T cells; format: binding; settings: subunits individually expressed, biotinylated peptide
T2 construct: expressed in transfected cells; host or cells: HEK293T cells (lysate)
T2 sequence (P51168 1-640): T1 sequence (P51168 1-640)
Experimental: HEK293T cells were transfected with double-tagged human ENaC subunits with HA and V5 epitopes at the N- and C-termini, respectively, in combination with wild-type untagged subunit cDNA. When all three ENaC subunits were expressed, 0.5 μg of each subunit were transfected per well. When expressed individually, 0.75 μg of the subunit were transfected per well. The transfected cells were lysed 24 h later using NP-40 buffer with 1× complete EDTA-free protease inhibitor (Roche, Basel, Switzerland). The lysate was centrifuged at 16,300×g for 15 minutes at 4° C. and the supernatant collected. Protein concentration was determined using the BCA assay and 500 μg of protein plus 0.25 mg peptide and 100 μL of neutravidin were added to a spin column and rotated end-over-end at 4° C. for 24 h (all ThermoFisher Scientific, Rockford, Ill., USA). Flow-through was collected by centrifugation at 1000×g for 30 s. The beads were then washed 5× with NP-40 buffer. Bound protein was eluted by boiling at 95° C. for 10 minutes in 75 μL of 2×LDS NuPAGE sample buffer with 1× sample reducing agent followed by centrifugation at 16,300×g for 2 minutes. Samples were resolved on 4-12% Bis-Tris gels in MES and transferred to a nitrocellulose membrane using iBlot, setting P3 for 8 min (Invitrogen, Carlsbad, Calif., USA). The membrane was probed using 1:1000 anti-V5 antibody (Invitrogen, Carlsbad, Calif., USA) overnight at 4° C. in 3% fish gelatin in TBS-T. The blot was then incubated for 1 h at room temperature with an ECL sheep anti-mouse IgG secondary antibody and detected by ECL reagent (ThermoFisher Scientific, Waltham, Mass., USA) or by incubation with a goat anti-mouse IRDye secondary antibody and analyzed by an Odyssey infrared imaging system (LI-COR Biosciences, Lincoln, Nebr., USA).
Peptide pull-down assays were performed as described above. Samples were eluted by the addition of 100 μL of 0.1 M sodium citrate, pH 5.5, 0.1% SDS to the beads and incubating at 100° C. for 2 minutes, followed by centrifugation at 16,300×g for 2 minutes. […]

CF HBECs = settings: 8 h ASL height
[4] = target: T3, αENaC-eGFP and βENaC-mCherry (Homo sapiens, UniProt P37088+P51168); assay: Acceptor-photobleaching FRET between fluorescently tagged ENaC subunits; format: cell-based; settings: one hour of exposure
T3 construct: expressed in transfected cells
Excerpt: Ai, cartoon of αENaC-eGFP and βENaC-mCherry under basal conditions (γENaC not shown). Aii We hypothesize that S18 binding to the extracellular loop of βENaC (1) induces a conformational change in ENaC which is reflected as altered intracellular FRET (2). This change may facilitate NEDD4-2-induced ubiquitination (3), leading to internalization of αβγENaC (4). […] In contrast, exposure to aprotinin had no effect. All n=8-10. C, Typical confocal images of HEK cells expressing αγENaC and βENaC-eGFP before and 1 h after 100 μM S18. Cell outlines are traced in white.
Since ENaC is regulated by NEDD4-2 binding to its C-termini, which leads to ubiquitination of its N-termini and internalization, we propose that S18 causes a conformational change in ENaC, leading to increased ubiquitination followed by internalization (FIG. 21A). As a first step towards understanding the mechanism of action of SPLUNC1, we performed FRET on fluorescently tagged ENaCs. […] Furthermore, βENaC-eGFP internalized upon S18 binding (FIG. 21C), consistent with our surface biotinylation data from oocytes.

serine proteases = assay: Endogenous protease activity (BGAR-MCA cleavage) on mucosal surface of human bronchial epithelial cultures; format: cell-based
Experimental: (§1) For cell-free assays, reactions were carried out in 50 μl Ringer in a 96 well plate format with 100 μM BGAR-MCA. To measure endogenous protease activity in human bronchial epithelial cultures, 30 μl Ringer with 100 μM BGAR-MCA were placed directly onto the mucosal surfaces of human bronchial epithelial cultures grown on 12 mm T-clear inserts and the cultures were assayed in 12 well plates.

trypsin = assay: Cell-free fluorogenic assay, trypsin cleavage of BGAR-MCA; format: biochemical; settings: 50 ng/ml rSPLUNC1 or 2 U/ml aprotinin; 1.0 or 0.3 U/ml trypsin
Experimental: as §1

N=C(N)NC(=O)c1nc(Cl)c(N)nc1N [amiloride, reference compound]
increase of transepithelial electrical resistance (ENaC [1]): ~33%
reduction of transepithelial voltage (ENaC [2]; amiloride for 10 min (FIG. 4 legend), n=12): 54%

ADGGLLLLNNPPPPQTVV (Control peptide sequence) [ABC, reference compound]
ASL height (ENaC [3]): no effect on ASL height
binding to βENaC (pull-down) (βENaC): No β-ENaC was observed in the elution

aprotinin [reference compound]
CF ASL hyperabsorption (CF HBECs): reduces CF ASL hyperabsorption
CF ASL hyperabsorption in the presence of neutrophil elastase (CF HBECs; neutrophil elastase): did not prevent neutrophil elastase from activating ENaC
FRET between αENaC-eGFP and βENaC-mCherry [4]: no effect
BGAR-MCA cleavage on human bronchial epithelial mucosal surfaces (serine proteases): inhibited
inhibition of trypsin cleavage of fluorogenic substrate BGAR-MCA (trypsin): ~100%
rate of inhibition of the transepithelial voltage (ENaC [2]; rSPLUNC1 vs aprotinin addition, effects not additive): identical rates
